Measurements from ChEMBL document CHEMBL6078632, “Discovery of Janus Kinase and Histone Deacetylase Dual Inhibitors as a New Strategy to Treat Psoriasis” (J Med Chem, 2024).
Calls of active or inactive are those of the source. The rule behind the calls is not given here.

Experiments:
HaCaT = experiment: cells; conditions: Homo sapiens, 48 h
Description: Antiproliferative activity against human HaCAT cells assessed as inhibition of TNFalpha-induced proliferation measured after 48 hrs by CCK-8 assay

[1] = molecular target: T1, Tyrosine-protein kinase JAK2 (Homo sapiens, UniProt O60674); experiment: Inhibition of JAK2 (unknown origin) using FAM-labelled peptide and ATP at 100 nM measured after 25 mins incubation relative to control
T1 sequence (O60674 whole entry): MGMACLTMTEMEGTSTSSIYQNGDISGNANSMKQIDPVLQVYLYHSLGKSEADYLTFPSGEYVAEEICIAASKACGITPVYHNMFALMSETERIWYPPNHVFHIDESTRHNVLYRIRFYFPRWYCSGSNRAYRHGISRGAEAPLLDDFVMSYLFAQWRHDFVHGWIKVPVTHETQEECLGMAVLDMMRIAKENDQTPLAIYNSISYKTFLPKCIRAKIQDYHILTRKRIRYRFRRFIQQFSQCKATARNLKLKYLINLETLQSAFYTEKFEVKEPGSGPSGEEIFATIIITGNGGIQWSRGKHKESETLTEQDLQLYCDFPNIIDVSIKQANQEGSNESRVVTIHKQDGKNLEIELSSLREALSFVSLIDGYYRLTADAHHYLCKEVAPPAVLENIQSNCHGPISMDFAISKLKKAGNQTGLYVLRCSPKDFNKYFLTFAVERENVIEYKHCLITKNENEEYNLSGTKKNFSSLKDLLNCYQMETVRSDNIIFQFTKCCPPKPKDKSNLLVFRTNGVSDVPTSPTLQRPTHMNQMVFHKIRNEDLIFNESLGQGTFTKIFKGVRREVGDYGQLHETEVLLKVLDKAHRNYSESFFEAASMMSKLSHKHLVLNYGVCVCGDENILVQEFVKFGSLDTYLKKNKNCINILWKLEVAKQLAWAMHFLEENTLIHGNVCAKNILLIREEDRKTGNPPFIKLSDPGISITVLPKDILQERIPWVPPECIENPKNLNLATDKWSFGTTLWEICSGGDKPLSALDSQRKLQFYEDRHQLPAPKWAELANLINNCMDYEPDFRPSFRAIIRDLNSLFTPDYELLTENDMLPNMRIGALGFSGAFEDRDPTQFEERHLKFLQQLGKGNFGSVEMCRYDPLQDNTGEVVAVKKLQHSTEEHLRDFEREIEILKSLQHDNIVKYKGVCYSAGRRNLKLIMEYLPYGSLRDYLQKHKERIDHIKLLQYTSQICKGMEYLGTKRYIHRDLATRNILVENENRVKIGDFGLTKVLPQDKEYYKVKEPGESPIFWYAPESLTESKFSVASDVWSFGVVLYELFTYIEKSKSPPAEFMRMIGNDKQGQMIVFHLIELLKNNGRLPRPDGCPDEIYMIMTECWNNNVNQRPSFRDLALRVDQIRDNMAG

RAW264.7 [2] = experiment: cells; assay type: functional; conditions: Mus musculus, time 24 hrs
Description: Antiinflammatory activity in mouse RAW264.7 cells assessed as inhibition of LPS-induced NO release at 0.4 uM incubated for 24 hrs relative to control

[3] = Metabolic stability of the compound in female ICR mouse liver microsomes assessed as half life at 1 uM measured up to 45 mins by LC-MS/MS analysis; assay type: ADME
[4] = molecular target: T1, Tyrosine-protein kinase JAK2; experiment: Inhibition of JAK2 (unknown origin) using FAM-labelled peptide and ATP measured after 25 mins incubation relative to control
Mus musculus [5] = experiment: Antipsoriatic activity against imiquimod-induced psoriasis BALB/c mouse model assessed as improvement in psoriatic symptom at 0.25 % applied topically back of the mouse for 7 consecutive days; assay type: functional, organism-based; conditions: route top
[6] = molecular target: Platelet-derived growth factor receptor alpha (Homo sapiens) (UniProt P16234); experiment: Inhibition of PDGFRalpha (unknown origin) at 10 nM relative to control
Platelet-derived growth factor receptor alpha (Homo sapiens), sequence (P16234 whole entry): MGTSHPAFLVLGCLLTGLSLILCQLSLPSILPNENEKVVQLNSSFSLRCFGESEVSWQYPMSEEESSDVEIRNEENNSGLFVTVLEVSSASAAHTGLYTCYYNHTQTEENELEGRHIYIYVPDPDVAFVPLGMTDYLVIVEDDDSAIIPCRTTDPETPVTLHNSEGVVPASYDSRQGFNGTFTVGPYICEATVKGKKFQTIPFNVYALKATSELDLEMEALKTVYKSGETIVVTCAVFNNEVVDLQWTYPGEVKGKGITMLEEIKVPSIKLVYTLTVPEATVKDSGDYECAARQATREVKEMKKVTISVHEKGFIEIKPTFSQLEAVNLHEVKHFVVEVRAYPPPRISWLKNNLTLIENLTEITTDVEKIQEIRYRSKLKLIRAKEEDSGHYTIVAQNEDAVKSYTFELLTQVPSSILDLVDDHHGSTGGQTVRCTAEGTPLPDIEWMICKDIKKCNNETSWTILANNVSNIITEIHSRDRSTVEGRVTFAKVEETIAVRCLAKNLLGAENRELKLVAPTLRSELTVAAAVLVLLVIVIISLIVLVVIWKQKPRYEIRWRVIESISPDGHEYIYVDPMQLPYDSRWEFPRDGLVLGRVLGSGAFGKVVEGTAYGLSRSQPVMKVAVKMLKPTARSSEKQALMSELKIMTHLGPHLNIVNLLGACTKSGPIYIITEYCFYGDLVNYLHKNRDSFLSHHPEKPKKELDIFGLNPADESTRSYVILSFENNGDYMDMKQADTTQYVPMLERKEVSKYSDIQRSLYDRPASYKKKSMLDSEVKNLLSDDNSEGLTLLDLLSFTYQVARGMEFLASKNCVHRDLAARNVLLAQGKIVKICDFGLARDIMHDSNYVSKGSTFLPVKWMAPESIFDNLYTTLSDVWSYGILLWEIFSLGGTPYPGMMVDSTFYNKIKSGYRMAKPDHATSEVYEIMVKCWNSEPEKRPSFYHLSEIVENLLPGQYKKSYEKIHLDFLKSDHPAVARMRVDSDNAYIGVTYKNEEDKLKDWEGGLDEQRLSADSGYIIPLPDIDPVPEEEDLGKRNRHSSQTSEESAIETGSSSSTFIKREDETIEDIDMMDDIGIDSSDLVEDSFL

Mus musculus [7] = experiment: Antipsoriatic activity against imiquimod-induced psoriasis BALB/c mouse model assessed as reduction in epidermal thickness applied topically back of the mouse for 7 consecutive days by hematoxylin and eosin staining based histological analysis; assay type: functional, organism-based; conditions: dose 0.25-0.5 %, route top
[8] = Antiproliferative activity against HUVEC cells; conditions: human
[9] = Acute toxicity in BALB/c mouse assessed as animal death at 7508 mg/kg; assay type: organism-based; conditions: in vivo
Mus musculus [10] = experiment: Antipsoriatic activity against imiquimod-induced psoriasis BALB/c mouse model assessed as improvement in psoriatic symptom at 0.25 to 0.5 % applied topically back of the mouse for 7 consecutive days; assay type: functional, organism-based; conditions: dose 0.25-0.5 %, route top
RAW264.7 [11] = experiment: Antiinflammatory activity in mouse RAW264.7 cells assessed as inhibition of LPS-induced IL-12 release at 0.9 uM incubated for 24 hrs by ELISA; assay type: functional, cell-based
[12] = Acute toxicity in BALB/c mouse assessed as animal death; conditions: in vivo
RAW264.7 [13] = experiment: Antiinflammatory activity in mouse RAW264.7 cells assessed as inhibition of LPS-induced NO release at 0.10 uM incubated for 24 hrs relative to control; assay type: functional
[14] = molecular target: T2, Tyrosine-protein kinase JAK3 (Homo sapiens, UniProt P52333); experiment: Inhibition of JAK3 (unknown origin) using FAM-labelled peptide and ATP measured after 25 mins incubation relative to control
T2 sequence (P52333 whole entry): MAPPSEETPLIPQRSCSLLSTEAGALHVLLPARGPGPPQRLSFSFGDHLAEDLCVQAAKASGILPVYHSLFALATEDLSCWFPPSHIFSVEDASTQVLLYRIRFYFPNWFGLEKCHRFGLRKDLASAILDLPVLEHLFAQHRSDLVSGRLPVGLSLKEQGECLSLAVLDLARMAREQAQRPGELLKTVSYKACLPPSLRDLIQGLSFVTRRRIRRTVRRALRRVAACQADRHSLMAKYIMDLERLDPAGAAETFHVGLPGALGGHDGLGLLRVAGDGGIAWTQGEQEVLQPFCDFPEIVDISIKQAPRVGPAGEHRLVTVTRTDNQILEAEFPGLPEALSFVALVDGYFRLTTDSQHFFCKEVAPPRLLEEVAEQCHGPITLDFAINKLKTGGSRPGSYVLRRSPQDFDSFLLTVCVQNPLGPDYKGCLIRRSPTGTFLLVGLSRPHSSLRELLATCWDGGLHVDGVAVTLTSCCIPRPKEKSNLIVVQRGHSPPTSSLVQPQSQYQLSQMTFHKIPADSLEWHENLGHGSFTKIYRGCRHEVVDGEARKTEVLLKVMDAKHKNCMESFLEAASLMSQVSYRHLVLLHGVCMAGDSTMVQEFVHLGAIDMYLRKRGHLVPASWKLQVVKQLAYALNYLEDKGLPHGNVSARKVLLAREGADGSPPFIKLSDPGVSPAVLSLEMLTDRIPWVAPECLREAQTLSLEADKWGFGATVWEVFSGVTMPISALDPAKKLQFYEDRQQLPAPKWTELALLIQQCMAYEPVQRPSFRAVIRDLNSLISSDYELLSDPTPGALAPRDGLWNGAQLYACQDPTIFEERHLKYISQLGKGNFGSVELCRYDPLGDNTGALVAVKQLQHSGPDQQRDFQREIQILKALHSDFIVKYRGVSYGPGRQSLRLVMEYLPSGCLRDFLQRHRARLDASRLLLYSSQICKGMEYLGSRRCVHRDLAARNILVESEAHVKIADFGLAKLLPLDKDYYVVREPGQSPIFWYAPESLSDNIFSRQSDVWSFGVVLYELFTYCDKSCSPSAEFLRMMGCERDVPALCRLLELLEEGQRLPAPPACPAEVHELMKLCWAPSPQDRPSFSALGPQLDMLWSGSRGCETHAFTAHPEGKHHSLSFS

RAW264.7 [15] = experiment: Antiinflammatory activity in mouse RAW264.7 cells assessed as inhibition of LPS-induced NO release at 0.20 uM incubated for 24 hrs relative to control; assay type: functional
[16] = molecular target: Non-receptor tyrosine-protein kinase TYK2 (Homo sapiens, UniProt P29597); experiment: Inhibition of TYK2 (unknown origin) using FAM-labelled peptide and ATP measured after 25 mins incubation relative to control
Non-receptor tyrosine-protein kinase TYK2, sequence (P29597 whole entry): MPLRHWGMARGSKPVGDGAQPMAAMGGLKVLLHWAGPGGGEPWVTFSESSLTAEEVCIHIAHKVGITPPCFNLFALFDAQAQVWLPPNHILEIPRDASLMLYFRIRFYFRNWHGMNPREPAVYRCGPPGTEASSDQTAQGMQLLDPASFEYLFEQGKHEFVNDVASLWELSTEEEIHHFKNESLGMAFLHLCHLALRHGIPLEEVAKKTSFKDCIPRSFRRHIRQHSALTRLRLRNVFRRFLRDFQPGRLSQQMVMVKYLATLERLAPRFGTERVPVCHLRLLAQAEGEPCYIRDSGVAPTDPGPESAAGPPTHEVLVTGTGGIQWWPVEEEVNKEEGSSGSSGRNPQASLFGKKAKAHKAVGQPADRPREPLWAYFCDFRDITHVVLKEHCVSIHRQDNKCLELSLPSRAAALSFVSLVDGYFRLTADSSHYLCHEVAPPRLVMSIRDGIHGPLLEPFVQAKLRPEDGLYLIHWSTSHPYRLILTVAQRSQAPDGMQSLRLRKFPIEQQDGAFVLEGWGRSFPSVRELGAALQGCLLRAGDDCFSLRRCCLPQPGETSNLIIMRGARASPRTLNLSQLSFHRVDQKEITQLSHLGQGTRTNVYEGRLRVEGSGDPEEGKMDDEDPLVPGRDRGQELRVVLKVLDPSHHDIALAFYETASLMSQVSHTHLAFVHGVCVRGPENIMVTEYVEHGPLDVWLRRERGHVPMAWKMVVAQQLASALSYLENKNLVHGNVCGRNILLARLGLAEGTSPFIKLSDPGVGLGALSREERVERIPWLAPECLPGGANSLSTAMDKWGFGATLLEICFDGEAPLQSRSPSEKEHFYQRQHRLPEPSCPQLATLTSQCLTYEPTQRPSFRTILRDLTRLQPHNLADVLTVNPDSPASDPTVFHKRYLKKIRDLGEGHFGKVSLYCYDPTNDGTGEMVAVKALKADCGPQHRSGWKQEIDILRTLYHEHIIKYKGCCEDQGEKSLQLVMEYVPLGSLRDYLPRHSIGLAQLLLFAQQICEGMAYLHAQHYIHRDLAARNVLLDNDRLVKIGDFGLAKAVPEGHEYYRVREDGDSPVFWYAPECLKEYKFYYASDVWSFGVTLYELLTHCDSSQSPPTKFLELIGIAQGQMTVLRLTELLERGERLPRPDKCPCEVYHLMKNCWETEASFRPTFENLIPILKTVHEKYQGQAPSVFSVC

RAW264.7 [17] = experiment: Antiinflammatory activity in mouse RAW264.7 cells assessed as inhibition of LPS-induced IFN-gamma release at 0.9 uM incubated for 24 hrs by ELISA; assay type: functional, cell-based
Mus musculus [18] = experiment: Antipsoriatic activity against imiquimod-induced psoriasis BALB/c mouse model assessed as reduction in skin thickness at 0.25 % applied topically back of the mouse for 7 consecutive days by hematoxylin and eosin staining based histological analysis; assay type: functional, organism-based; conditions: route top
[19] = Metabolic stability of the compound in female ICR mouse liver microsomes assessed as clearance at 1 uM measured up to 45 mins by LC-MS/MS analysis; assay type: ADME; conditions: read-out: CLH
RAW264.7 [20] = experiment: Antiinflammatory activity in mouse RAW264.7 cells assessed as inhibition of LPS-induced TNFalpha release at 0.9 uM incubated for 24 hrs by ELISA; assay type: functional, cell-based
Histone deacetylase 1 = Histone deacetylase 1 (Homo sapiens, UniProt Q13547); experiment: Inhibition of recombinant human HDAC1 using (Ac-Leu-Gly-Lys(Ac)-AMC as substrate measured after 30 mins by fluorescence assay
Histone deacetylase 1, sequence (Q13547 whole entry): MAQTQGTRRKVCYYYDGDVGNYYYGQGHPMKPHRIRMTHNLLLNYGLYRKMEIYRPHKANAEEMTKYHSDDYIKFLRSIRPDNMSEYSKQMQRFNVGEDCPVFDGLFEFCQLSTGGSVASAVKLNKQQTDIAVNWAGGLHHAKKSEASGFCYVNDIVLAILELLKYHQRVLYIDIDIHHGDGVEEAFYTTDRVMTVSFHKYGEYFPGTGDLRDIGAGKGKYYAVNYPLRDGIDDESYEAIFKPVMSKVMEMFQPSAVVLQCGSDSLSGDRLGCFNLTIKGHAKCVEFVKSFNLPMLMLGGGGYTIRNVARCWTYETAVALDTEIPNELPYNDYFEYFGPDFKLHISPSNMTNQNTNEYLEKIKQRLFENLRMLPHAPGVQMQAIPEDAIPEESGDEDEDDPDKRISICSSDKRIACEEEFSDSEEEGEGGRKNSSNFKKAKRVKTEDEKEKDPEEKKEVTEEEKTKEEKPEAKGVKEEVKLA

[21] = Antiproliferative activity against human LO2 cells; assay type: toxicity, cell-based, L02
Mus musculus [22] = experiment: Antipsoriatic activity against imiquimod-induced psoriasis BALB/c mouse model assessed as reduction in skin thickness at 0.5 % applied topically back of the mouse for 7 consecutive days by hematoxylin and eosin staining based histological analysis; assay type: functional, organism-based; conditions: route top
Mus musculus [23] = experiment: Antipsoriatic activity against imiquimod-induced psoriasis BALB/c mouse model assessed as improvement in psoriatic symptom at 0.5 % applied topically back of the mouse for 7 consecutive days; assay type: functional, organism-based; conditions: route top
Histone deacetylase 8 = molecular target: T3, Histone deacetylase 8 (Homo sapiens, UniProt Q9BY41); experiment: Inhibition of recombinant human HDAC8 using (Ac-Leu-Gly-Lys(Tfa)-AMC as substrate measured after 30 mins by fluorescence assay
T3 sequence (Q9BY41 whole entry): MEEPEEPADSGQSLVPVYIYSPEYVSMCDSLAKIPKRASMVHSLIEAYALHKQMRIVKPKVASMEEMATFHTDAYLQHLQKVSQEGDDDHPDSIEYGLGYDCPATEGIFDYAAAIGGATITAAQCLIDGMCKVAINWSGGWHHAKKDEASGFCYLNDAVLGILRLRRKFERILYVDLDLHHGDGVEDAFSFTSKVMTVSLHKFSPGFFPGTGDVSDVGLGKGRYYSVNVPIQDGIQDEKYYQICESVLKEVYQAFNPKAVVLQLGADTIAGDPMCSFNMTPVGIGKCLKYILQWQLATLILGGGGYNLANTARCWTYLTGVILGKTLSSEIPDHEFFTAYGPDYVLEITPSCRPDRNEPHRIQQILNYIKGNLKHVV

Compound	IC50 (HaCaT)	inhibition [1]	inhibition at 0.4 µM (RAW264.7 [2])	other results
CS(=O)(=O)Nc1ccc(-c2ccnc(Nc3ccc(N4CCN(CC(=O)NCCCCCCC(=O)NO)CC4)cc3)n2)cc1	5.3 µM	99%	73.9%	–
C[C@@H]1CCN(C(=O)CC#N)C[C@@H]1N(C)c1ncnc2[nH]ccc12 [TOFACITINIB]	> 50 µM	–	–	–
CS(=O)(=O)Nc1ccc(-c2ccnc(Nc3ccc(-c4cn(CC(=O)NCCC(=O)NO)nn4)cc3)n2)cc1	> 50 µM	97%	–	–
CS(=O)(=O)Nc1ccc(-c2ccnc(Nc3ccc(N4CCN(CC(=O)Nc5ccc(C(=O)NO)cc5)CC4)cc3)n2)cc1	1.2 µM	99%	105%	half-life at 1 µM [3]: 39.8 min; IC50 [4]: 0.00049 µM; Activity (Mus musculus [5]): Active; Compound Showed Better Activity Than 11G And Vorinostat/Momelotinib Control; inhibition [6]: > 50%; Activity (Mus musculus [7]): Dose-dependent-effect; IC50 [8]: 10 µM; Activity [9]: Non-toxic; Activity (Mus musculus [10]): Active; Activity (RAW264.7 [11]): Active; LD50 [12]: > 7510 mg/kg; inhibition at 0.1 µM (RAW264.7 [13]): 105%; IC50 [14]: 0.0056 µM; inhibition at 0.2 µM (RAW264.7 [15]): 105%; IC50 [16]: 0.0026 µM; Activity (RAW264.7 [17]): Active; Activity (Mus musculus [18]): Active; CLint scaled at 1 µM [19]: 8.27 L/h/kg; Activity (RAW264.7 [20]): Active
CS(=O)(=O)Nc1ccc(-c2ccnc(Nc3ccc(N4CCN(CC(=O)NCCC(=O)NO)CC4)cc3)n2)cc1	> 50 µM	99%	–	IC50 (Histone deacetylase 1): > 2 µM
CS(=O)(=O)Nc1ccc(-c2ccnc(Nc3ccc(-c4cn(CC(=O)NCCCCCC(=O)NO)nn4)cc3)n2)cc1	> 50 µM	98%	–	–
CS(=O)(=O)Nc1ccc(-c2ccnc(Nc3ccc(-c4cn(CC(=O)NCCCCC(=O)NO)nn4)cc3)n2)cc1	> 50 µM	98%	–	–
CS(=O)(=O)Nc1ccc(-c2ccnc(Nc3ccc(N4CCN(CC(=O)NCCCCC(=O)NO)CC4)cc3)n2)cc1	16 µM	98%	–	–
CS(=O)(=O)Nc1ccc(-c2ccnc(Nc3ccc(N4CCN(CC(=O)NCCCCCCCC(=O)NO)CC4)cc3)n2)cc1	10 µM	100%	71.3%	–
CS(=O)(=O)Nc1ccc(-c2ccnc(Nc3ccc(-c4cn(CC(=O)NCCCCCCCC(=O)NO)nn4)cc3)n2)cc1	> 50 µM	–	–	–
CS(=O)(=O)Nc1ccc(-c2ccnc(Nc3ccc(N4CCN(CC(=O)NCCCC(=O)NO)CC4)cc3)n2)cc1	17 µM	100%	–	–
CS(=O)(=O)Nc1ccc(-c2ccnc(Nc3ccc(N4CCN(CC(=O)Nc5ccc(/C=C/C(=O)NO)cc5)CC4)cc3)n2)cc1	–	99%	110%	half-life at 1 µM [3]: 56.3 min; IC50 [4]: 0.00072 µM; IC50 [21]: 5 µM; Activity (Mus musculus [22]): Active; Activity (RAW264.7 [11]): Active; inhibition at 0.1 µM (RAW264.7 [13]): 82.1%; IC50 [14]: 0.0079 µM; inhibition at 0.2 µM (RAW264.7 [15]): 105%; IC50 [16]: 0.0044 µM; Activity (Mus musculus [23]): Active; Activity (RAW264.7 [17]): Active; Activity (Mus musculus [18]): Active; CLint scaled at 1 µM [19]: 5.85 L/h/kg; IC50 (Histone deacetylase 8): > 1 µM; Activity (RAW264.7 [20]): Active
CS(=O)(=O)Nc1ccc(-c2ccnc(Nc3ccc(-c4cn(CC(=O)NCCCC(=O)NO)nn4)cc3)n2)cc1	> 50 µM	99%	–	–
CS(=O)(=O)Nc1ccc(-c2ccnc(Nc3ccc(N4CCN(CC(=O)NCCCCCC(=O)NO)CC4)cc3)n2)cc1	9.6 µM	99%	–	–
CS(=O)(=O)Nc1ccc(-c2ccnc(Nc3ccc(-c4cn(CC(=O)NCCCCCCC(=O)NO)nn4)cc3)n2)cc1	> 50 µM	99%	–	–
CS(=O)(=O)Nc1ccc(-c2ccnc(Nc3ccc(-c4cn(CC(=O)Nc5ccc(C(=O)NO)cc5)nn4)cc3)n2)cc1	> 50 µM	98%	–	IC50 (Histone deacetylase 1): > 2 µM
CS(=O)(=O)Nc1ccc(-c2ccnc(Nc3ccc(N4CCN(CC(=O)NO)CC4)cc3)n2)cc1	10 µM	99%	–	IC50 (Histone deacetylase 1): > 2 µM
CS(=O)(=O)Nc1ccc(-c2ccnc(Nc3ccc(N4CCN(CC(=O)Nc5ccc(C(=O)NO)s5)CC4)cc3)n2)cc1	1.4 µM	99%	82.1%	–
N#CCNC(=O)c1ccc(-c2ccnc(Nc3ccc(N4CCOCC4)cc3)n2)cc1 [MOMELOTINIB]	13 µM	–	94.8%	IC50 [8]: 7.3 µM; IC50 (Histone deacetylase 1): 0.04 µM
CS(=O)(=O)Nc1ccc(-c2ccnc(Nc3ccc(-c4cn(CC(=O)NO)nn4)cc3)n2)cc1	> 50 µM	99%	–	IC50 (Histone deacetylase 1): > 2 µM
